Measured values from ChEMBL document CHEMBL1201862, “PubChem BioAssay data set” (2004).
“And” between values parts separate entries of the source, which are not always exact repeats. Identical values can stand only once.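 In this assay, cells in 96-well plates receive the compound at five concentrations for 48 hours. Endpoints are linearly interpolated between the surrounding concentrations. GI50 is the concentration that inhibits growth by half.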 The source made the active and inactive calls. Cut-off read from the data, not from the text of the source: active = GI50 up to about 1.1 µM and inactive = higher. Starred links: 1 amine or outer side, 2 acyl side, 3 side chain; linkers in the order of their positions; H or OH if unused. Positions of bridges follow the written chain, without caps; N, C: chain ends. Non-standard residues stand in square brackets, D forms with d. Residues, ends and D or L forms follow the SMILES beside them. Chains are numbered I, II in the order given. ξ: configuration not given here. X42 = N=C(N)NCCC[C@H](NC(=N)CCCCCCC(=N)N[C@@H](CCCNC(=N)N)C(=O)[*:2])C(=O)[*:1]; Oic(3aξ,7aξ) = O=C(O)[C@@H]1CC2CCCCC2N1; Igl = N[C@H](C(=O)O)C1Cc2ccccc2C1; Hyp = O=C(O)[C@@H]1C[C@@H](O)CN1

Columns and labels:
Test in all cases: NCI-60 cell line screen, 48 h
786-0 = test system: 786-0
A549 = test system: A549
ACHN = test system: ACHN
CAKI-1 = test system: CAKI-1
CCRF-CEM = test system: CCRF-CEM
COLO 205 = test system: COLO 205
DU-145 = test system: DU-145
EKVX = test system: EKVX
HCT-116 = test system: HCT-116
HCT-15 = test system: HCT-15
HL-60 = test system: HL-60
HOP-62 = test system: HOP-62
HOP-92 = test system: HOP-92
HT-29 = test system: HT-29
Hs-578T = test system: Hs-578T
IGROV-1 = test system: IGROV-1
K562 = test system: K562
KM12 = test system: KM12
LOX IMVI = test system: LOX IMVI
M14 = test system: M14
MCF7 = test system: MCF7
MDA-MB-231 = test system: MDA-MB-231
MDA-MB-435 = test system: MDA-MB-435
MDA-N = test system: MDA-N
MOLT-4 = test system: MOLT-4
Malme-3M = test system: Malme-3M
NCI-H23 = test system: NCI-H23
NCI-H460 = test system: NCI-H460
NCI-H522 = test system: NCI-H522
NCI/ADR-RES = test system: NCI/ADR-RES
OVCAR-3 = test system: OVCAR-3
OVCAR-4 = test system: OVCAR-4
OVCAR-5 = test system: OVCAR-5
PC-3 = test system: PC-3
RPMI-8226 = test system: RPMI-8226
RXF 393 = test system: RXF 393
SF-268 = test system: SF-268
SF-295 = test system: SF-295
SF-539 = test system: SF-539
SK-MEL-28 = test system: SK-MEL-28
SK-MEL-2 = test system: SK-MEL-2
SK-MEL-5 = test system: SK-MEL-5
SK-OV-3 = test system: SK-OV-3
SN12C = test system: SN12C
SNB-19 = test system: SNB-19
SR = test system: SR
SW-620 = test system: SW-620
T47D = test system: T47D
TK-10 = test system: TK-10
U-251 = test system: U-251
UACC-257 = test system: UACC-257
UACC-62 = test system: UACC-62
UO-31 = test system: UO-31
A498 = test system: A498
BT-549 = test system: BT-549
HCC 2998 = test system: HCC 2998
NCI-H226 = test system: NCI-H226
OVCAR-8 = test system: OVCAR-8
SNB-75 = test system: SNB-75

Measured: GI50

N=C(N)NCCC[C@H](NC(=O)[C@@H]1CC2CCCCC2N1C(=O)[C@@H](NC(=O)[C@H](CO)NC(=O)[C@@H](NC(=O)CNC(=O)[C@@H]1CCCN1C(=O)[C@H](CCCNC(=N)N)NC(=O)[C@H](CCCNC(=N)N)NC(=N)CCCCCCC(=N)N[C@@H](CCCNC(=N)N)C(=O)N[C@@H](CCCNC(=N)N)C(=O)N1CCC[C@H]1C(=O)N1C[C@H](O)C[C@H]1C(=O)NCC(=O)N[C@H](C(=O)N[C@@H](CO)C(=O)N[C@H](C(=O)N1C2CCCCC2C[C@H]1C(=O)N[C@@H](CCCNC(=N)N)C(=O)O)C1Cc2ccccc2C1)C1Cc2ccccc2C1)C1Cc2ccccc2C1)C1Cc2ccccc2C1)C(=O)O (some centres not stated) (I: RP[Hyp]G[Igl]S[Igl][Oic(3aξ,7aξ)]R-OH / II: RPG[Igl]S[Igl][Oic(3aξ,7aξ)]R-OH; linker I:N-II:N via X42)
active: HL-60 150 nM | HT-29 138 nM | K562 0.993 µM | MOLT-4 0.413 µM | SR 169 nM
inactive: 786-0 2.99 µM | A549 3.08 µM | ACHN 1.91 µM | CAKI-1 2.1 µM | CCRF-CEM 3.11 µM | COLO 205 1.69 µM | DU-145 1.64 µM | EKVX 2.03 µM | HCT-116 4.38 µM | HOP-62 2.23 µM | HOP-92 2.21 µM | Hs-578T 2.91 µM | IGROV-1 2.44 µM | KM12 2.07 µM | LOX IMVI 2.24 µM | M14 3.18 µM | MCF7 1.99 µM | MDA-MB-231 1.69 µM | MDA-MB-435 1.99 µM | MDA-N 2.08 µM | Malme-3M 2.31 µM | NCI-H23 1.92 µM | NCI-H460 1.91 µM | NCI-H522 5.89 µM | NCI/ADR-RES 2.9 µM | OVCAR-3 1.79 µM | OVCAR-4 2.73 µM | OVCAR-5 3.48 µM | PC-3 1.62 µM | RPMI-8226 2.31 µM | RXF 393 1.34 µM | SF-268 1.92 µM | SF-295 1.86 µM | SF-539 2.36 µM | SK-MEL-28 2.01 µM | SK-MEL-2 2.33 µM | SK-MEL-5 1.73 µM | SK-OV-3 1.83 µM | SN12C 2.07 µM | SNB-19 2.36 µM | SW-620 2.28 µM | T47D 2.19 µM | TK-10 2.76 µM | U-251 2.48 µM | UACC-257 4.15 µM | UACC-62 1.83 µM | UO-31 5.43 µM
2.22 µM: HCT-15

CC(=O)NC1(C(=O)N[C@@H](Cc2ccccc2)C(=O)NC2CCCCC2)Cc2ccc3ccccc3c2-c2c(ccc3ccccc23)C1
inactive: 786-0 8.95 µM and 8.73 µM | A498 14.6 µM and 21.2 µM | ACHN 4.06 µM and 7.73 µM | BT-549 8.97 µM and 15.2 µM | CAKI-1 26.7 µM and 15.6 µM | CCRF-CEM 5.18 µM and 3.47 µM | HCC 2998 6.73 µM and 4.54 µM | HCT-116 4.48 µM and 6.7 µM | HL-60 5.02 µM and 3.49 µM | HOP-92 48.6 µM and 32 µM | HT-29 6.37 µM and 4.84 µM | Hs-578T > 100 µM | LOX IMVI 53.2 µM and 50.5 µM | MCF7 3.03 µM and 5.48 µM | NCI-H460 6.17 µM and 3.41 µM | NCI/ADR-RES 3.94 µM and 6.82 µM | SK-MEL-2 15.3 µM and 7.89 µM | SR 14.7 µM and 12.6 µM | SW-620 17.8 µM and 25.3 µM | T47D 4.55 µM and 5.27 µM | U-251 9.53 µM and 5.89 µM
6.61 µM and 3.9 µM: HCT-15

O=C(CC(O)(C(F)(F)F)C(F)(F)F)C(CCCl)C(O)(C(F)(F)F)C(F)(F)F (configuration not stated)
inactive: 786-0 32.7 µM | A498 25.4 µM | A549 35.6 µM | ACHN 30.5 µM | CAKI-1 31.5 µM | CCRF-CEM 39.9 µM | COLO 205 13.8 µM | DU-145 39.7 µM | EKVX 34.7 µM | HCC 2998 43.8 µM | HCT-116 26.7 µM | HL-60 16600 nM | HOP-62 33.3 µM | HT-29 23800 nM | Hs-578T 67.6 µM | IGROV-1 52.5 µM | K562 39.7 µM | KM12 42.3 µM | LOX IMVI 55.7 µM | M14 40.6 µM | MCF7 85.1 µM | MDA-MB-231 65 µM | MDA-MB-435 62.7 µM | MDA-N > 100 µM | MOLT-4 71.9 µM | Malme-3M 24.7 µM | NCI-H226 23.5 µM | NCI-H23 33.2 µM | NCI-H460 15 µM | NCI-H522 34.4 µM | NCI/ADR-RES 9.89 µM | OVCAR-3 11.5 µM | OVCAR-4 49.2 µM | OVCAR-5 44.2 µM | OVCAR-8 27.9 µM | PC-3 15.5 µM | RPMI-8226 16.7 µM | RXF 393 21.1 µM | SF-268 30.7 µM | SF-295 33.5 µM | SF-539 54.8 µM | SK-MEL-28 57.3 µM | SK-MEL-2 36.2 µM | SK-MEL-5 23.2 µM | SK-OV-3 45.6 µM | SN12C 18.9 µM | SNB-19 34.5 µM | SNB-75 24.9 µM | SR 27300 nM | SW-620 51.6 µM | T47D 26 µM | TK-10 55.7 µM | U-251 35.6 µM | UACC-257 30.8 µM | UACC-62 53.2 µM | UO-31 28.2 µM
34.3 µM: HCT-15
